The test system of this assay is CEM cells HIV-1 protection, formazan growth assay. The experiment in a line: NCI AIDS Antiviral Assay. The settings on record: for IC50: measured here: growth of uninfected CEM cells. Put shortly: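 Protection of CEM cells against HIV-1 was scored from cell growth (soluble formazan) across five concentrations, with parallel uninfected cells. Lack of protection may reflect toxicity.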

For 72 molecules, EC50, IC50 and outcome results are on record in PubChem BioAssay AID179 (DTP/NCI, 2004).

“And” between values parts separate entries of the source, which are not always exact repeats. Identical values can stand only once. The source made the active and inactive calls.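 Rule for the calls: active = compounds giving half or more protection of infected cells from virus-caused growth loss, again on retest; inactive = the rest.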

As usually defined, the EC50 is the concentration at which the effect is half-maximal. One may read the IC50 as the concentration at which inhibition is half-maximal. Consider `CCOC(=O)C1=C(C)NC(CO)=C(C(=O)OCC)C1c1cccc([N+](=O)[O-])c1` (stereo not drawn), for which the EC50 was greater than 2 µM and the 50% inhibitory concentration (IC50) stood at 0.355 µM.

`COC(CCC[N+](C)(C)C)CC[N+](C)(C)C` (stereo not drawn): the EC50 was greater than 100 µM and the half-inhibitory concentration (IC50) is greater than 100 µM.

Consider `COc1ccccc1C=C1C(=O)NC(=O)NC1=O`, for which the EC50 is greater than 145 µM and the IC50 was greater than 145 µM.

As for `CC1c2c(cc(=O)n(C)c2O)C(=O)N1Cc1ccccc1` (stereo not drawn), the EC50 was greater than 347 µM and the half-maximal inhibitory concentration (IC50) worked out at 257 µM.

With `CCOC(=O)C(C)(c1c(C)[nH]c2ccccc12)c1c(C)[nH]c2ccccc12`, the result was inactive.

As to `O=C(O)C1CSC(c2cccs2)N1` (stereo not drawn), the EC50 was greater than 200 µM and the 50% inhibitory concentration (IC50) was greater than 200 µM.

Regarding `CC(=O)OCC(c1ccccc1)N1C(=O)C(OC(C)=O)[C@H](OC(C)=O)C1=O` (stereo partly drawn), the EC50 is greater than 661 µM and the 50% inhibitory concentration (IC50) is greater than 661 µM.

For `N#C/C(=C\N1CC(=O)NC1=S)c1nc2ccccc2s1`, the result was inactive.

With `Cc1ccc(N(C(=O)Nc2ccccc2)C2=NCC(C)S2)cc1C` (stereo not drawn), the EC50 is greater than 200 µM and the IC50 was greater than 200 µM.

As for `CN(C)CC1CCC/C(=C\c2ccccc2)C1=O` (stereo not drawn), the EC50 is greater than 200 µM and the half-maximal inhibitory concentration (IC50) is 0.708 µM.

For the molecule `Cc1ccc2oc(=O)c(C(=O)Nc3nc(C45CC6CC(CC(C6)C4)C5)cs3)cc2c1`, the EC50 was greater than 100 µM and the IC50 was greater than 100 µM.

Turning to `C=C1CCC(CC[C@@H]2CC[C@]3(OC2)O[C@@]2(O)CC[C@]3(C)OC2(C)C)C(C)(C)[C@H]1C/C=C1/C(=O)OC[C@@H]1O` (stereo partly drawn), the result was inactive.

With `COc1ccc(/C=C2/C(=O)N(C(=O)c3ccccc3O)N=C2C)cc1OC`, the EC50 was greater than 70.8 µM and the half-inhibitory concentration (IC50) stood at 0.145 µM.

Take `COc1ccc(CCNC(=S)/N=C\C(C(=O)c2ccccc2)=C(\O)c2ccccc2)cc1OC`: the result was inactive.

Take `CCCCNC(=O)C1=C(C)NC(C)=C(C(=O)NCCCC)C1`: the EC50 was greater than 200 µM and the IC50 was greater than 200 µM.

Turning to `OC(CCN1CC2CCC(CC2)C1)(Cc1ccccc1)c1cccs1` (stereo not drawn), the EC50 was greater than 200 µM and the half-inhibitory concentration (IC50) stood at 47.9 µM.

As for `O=[N+]([O-])c1ccccc1CS(=O)(=O)c1ccccc1`, the outcome was inactive.

For `CC(=O)N1C(Nc2cccc3nc(C)ccc23)CCN1c1ccccc1` (stereo not drawn), the EC50 is greater than 200 µM and the IC50 amounted to 14.8 µM.

Take `O=C1c2ccccc2-c2nnsc21`: the EC50 is greater than 191 µM and the IC50 worked out at 141 µM.

As to `CN1CCN(C(=S)N(C(=O)c2ccc(Cl)cc2)C2CCCCC2)CC1`, the EC50 was greater than 95.5 µM and the IC50 was 45.7 µM.

`CCCN1C(=O)CN(S(=O)(=O)c2ccc(Cl)cc2)C1=O`: the EC50 is greater than 200 µM and the IC50 was greater than 200 µM.

As for `CC1(CO)OC(n2cnc3cncnc32)CC1O` (stereo not drawn), the half-maximal effective concentration (EC50) is 18.2 µM and the half-inhibitory concentration (IC50) was greater than 200 µM.

Take `CC(=O)n1c(COc2ccc3c(C)cc(=O)oc3c2)nc2ccccc2c1=O`: the EC50 was greater than 91.2 µM and the IC50 is greater than 91.2 µM.

Turning to `NC1=NC(=O)C(c2ccccc2)S1` (stereo not drawn), the EC50 is greater than 676 µM and the IC50 is greater than 676 µM.

Consider `O=C(O)CCC(NC(=O)c1ccc(Nc2nc3ccccc3nc2C(=O)O)cc1)C(=O)O` (stereo not drawn), for which the EC50 was greater than 200 µM and the IC50 is greater than 200 µM.

With `COc1ccc(C2Oc3ccccc3C(=O)C2N)cc1` (stereo not drawn), the EC50 is greater than 200 µM and the IC50 came to 93.3 µM.

On to `COc1ccc(C23OC2Oc2cc(OC4CCCCO4)ccc2C3=O)cc1` (stereo not drawn), for which the EC50 was greater than 70.8 µM and the half-maximal inhibitory concentration (IC50) amounted to 45.7 µM.

For `COc1cccc(C=C(C#N)C#N)c1`, the EC50 was greater than 708 µM and the 50% inhibitory concentration (IC50) is 115 µM.

In the case of `O=C1C(=Cc2ccc([N+](=O)[O-])cc2)C(=O)c2ccccc21`, the EC50 was greater than 49 µM and the IC50 came to 11.7 µM.

As for `N#CC(C#N)=C1NN=C(Cl)c2ccccc21`, the outcome was inactive.

`Cc1ccc(S(=O)(=O)N2CCCN(S(=O)(=O)c3ccc(C)cc3)CC2)cc1`: the EC50 is greater than 45.7 µM and the concentration for half-maximal inhibition (IC50) is greater than 45.7 µM.

Take `COc1ccc(/C=C/c2sc3ccccc3[n+]2CCCCI)cc1OC`: the EC50 was greater than 200 µM and the IC50 was found to be 7.59 µM.

As for `C[N+]1(Cc2ccc([N+](=O)[O-])cc2)CCC(CCCCCCCC2CC[N+](C)(Cc3ccc([N+](=O)[O-])cc3)CC2)CC1` (stereo not drawn), the EC50 is greater than 200 µM and the half-inhibitory concentration (IC50) was 14.5 µM.

As to `Nc1cc(N2CCOCC2)nc(=O)n1-c1ccccc1`, the EC50 is greater than 200 µM and the 50% inhibitory concentration (IC50) is greater than 200 µM.

As for `CCOC(=O)/C(C#N)=C/c1c[nH]c2ccccc12`, the EC50 was greater than 200 µM and the concentration for half-maximal inhibition (IC50) came out at 158 µM.

Take `Cc1noc(NS(=O)(=O)c2ccc(N=c3c4ccccc4n(C)c4ccccc34)cc2)c1C`: the outcome was inactive.

`CCOC(=S)SCCSC`: the EC50 is greater than 200 µM and the concentration for half-maximal inhibition (IC50) is greater than 200 µM.

`CCOC(=O)NNC(=O)NCCCCNC(=O)NNC(=O)OCC`: the EC50 was greater than 200 µM and the half-maximal inhibitory concentration (IC50) is greater than 200 µM.

In the case of `COc1ccc(/C(=C/n2ccnc2)C(=O)c2ccc(OC)c(OC)c2)cc1`, the EC50 is greater than 200 µM and the half-maximal inhibitory concentration (IC50) was greater than 200 µM.

`NS(=O)(=O)c1ccc(NC(=S)/N=C/c2c(O)c3ccccc3oc2=O)cc1`: the EC50 was greater than 200 µM and the concentration for half-maximal inhibition (IC50) worked out at 110 µM.

For the molecule `NC(CCCCNC(=O)C(Cc1ccccc1)NC(=O)OCc1ccccc1)C(=O)NC(CCCCNC(=O)C(Cc1ccccc1)NC(=O)OCc1ccccc1)C(=O)NC(CCCCNC(=O)C(Cc1ccccc1)NC(=O)OCc1ccccc1)C(=O)NC(CCCCNC(=O)C(Cc1ccccc1)NC(=O)OCc1ccccc1)C(=O)NC(CCCCNC(=O)C(Cc1ccccc1)NC(=O)OCc1ccccc1)C(=O)NC(CCCCNC(=O)C(Cc1ccccc1)NC(=O)OCc1ccccc1)C(=O)O` (stereo not drawn), the EC50 was greater than 50.1 µM and the concentration for half-maximal inhibition (IC50) was greater than 50.1 µM.

`CCOC(=O)COS(=O)(=O)C(F)(F)F`: the EC50 was greater than 1050 µM and the half-inhibitory concentration (IC50) is greater than 1050 µM.

On to `C[Si](C)(C)N1N=NC2C(=O)N(c3ccccc3)C(=O)C21` (stereo not drawn), for which the EC50 was greater than 200 µM and the half-maximal inhibitory concentration (IC50) was greater than 200 µM.

For the molecule `O=C(CN1CCCCC1)c1ccc2c(c1)Sc1ccccc1O2`, the EC50 was greater than 200 µM and the 50% inhibitory concentration (IC50) turned out to be 3.47 µM.

Take `COC1OC(COC(C)=O)C(OC(C)=O)C(OC(C)=O)C1NC(=O)N(CCCl)N=O` (stereo not drawn): the EC50 is greater than 288 µM; the concentration for half-maximal inhibition (IC50) was 91.2 µM and > 209 µM.

Take `O=C1C(c2ccccc2)CS(=O)(=O)CC1c1ccccc1` (stereo not drawn): the EC50 is greater than 120 µM and the half-maximal inhibitory concentration (IC50) is 36.3 µM.

`O=C1ON(c2ccccc2)C(c2ccccc2)N1c1ccccc1` (stereo not drawn): the EC50 was greater than 200 µM and the IC50 is 61.7 µM.

With `CSCCC(N)C(=O)NCCS(=O)(=O)O` (stereo not drawn), the EC50 is greater than 200 µM and the half-inhibitory concentration (IC50) was greater than 200 µM.

As for `CCCCCCCCOC(=O)CC(C(=O)OCCCCCCCC)S(=O)(=O)O` (stereo not drawn), the EC50 is greater than 200 µM and the IC50 turned out to be 117 µM.

On to `CCOC(=O)C12C3C(=O)N(CC)C(=O)C3ON1OC1C(=O)N(CC)C(=O)C12` (stereo not drawn), for which the EC50 is greater than 661 µM and the IC50 is 81.3 µM.

As for `C=C1C2CCC3(CCC4C5(C)CCCC4(C=NC5)C3C2)C1O` (stereo not drawn), the result was inactive.

Turning to `O=C(O)CC(NC(=O)/C(=C/c1ccccc1)NC(=O)c1ccccc1)C(=O)O` (stereo not drawn), the EC50 is greater than 200 µM and the IC50 is greater than 200 µM.

As to `O=C1C=CC(c2ccccc2)(c2ccccc2)O1`, the EC50 is greater than 200 µM and the half-inhibitory concentration (IC50) was found to be 151 µM.

Turning to `NC(=O)c1ccc2cc(O)c(O)cc2c1`, the EC50 was greater than 245 µM and the concentration for half-maximal inhibition (IC50) amounted to 34.7 µM.

`CC(=O)c1nc2ccccc2n1C(C)C(=O)c1ccccc1` (stereo not drawn): the EC50 is greater than 200 µM and the IC50 was determined as 11.2 µM.

For the molecule `CCN1C[C@]2(COC)CCC(O)C34[C@@H]5C[C@@H]6C(O)[C@@H]5[C@](O)(C[C@@H]6OC)[C@@](O)([C@H]13)[C@@H](OC)[C@@H]42` (stereo partly drawn), the outcome was inactive.

As to `Nc1nn2cc3c(nc2c1N=Nc1ccc(Cl)cc1)CCCC3`, the outcome was inactive.

Consider `O=C1c2ccccc2C(=O)c2sc(Nc3ccccc3C(F)(F)F)nc21`, for which the EC50 was greater than 200 µM and the 50% inhibitory concentration (IC50) worked out at 11 µM.

As to `CCCCCCCCCCCCCCCCCc1nnc(N)o1`, the result was inactive.

Turning to `CCC(OCc1ccccc1)/C(C)=C/CC(C)C=C(Br)Br` (stereo not drawn), the EC50 was greater than 933 µM and the 50% inhibitory concentration (IC50) came to 891 µM.

On to `COc1ccc(/C=C(/C(=O)O)c2ccccc2)cc1`, for which the EC50 was greater than 708 µM and the IC50 is 288 µM.

For `O=S(O)CCCCSSSCCCCS(=O)O`, the EC50 is greater than 200 µM and the IC50 was found to be 2.69 µM.

For `CN(C)C(=S)Sc1nsc(SC(=S)N(C)C)n1`, the EC50 was greater than 200 µM and the half-maximal inhibitory concentration (IC50) is greater than 200 µM.

Regarding `COc1cc(/C=N/Nc2nnc3c4ccccc4c4ncccc4c3n2)cc(OC)c1OC`, the EC50 was greater than 100 µM and the 50% inhibitory concentration (IC50) worked out at 57.5 µM.

Regarding `COc1cc2c[n+](C)c3c4ccccc4ccc3c2cc1OC` (tested in a mixture with another compound), the EC50 was greater than 170 µM and the IC50 came to 6.03 µM.

On to `Nc1nc(Cl)cc(NC2(CO)CCC2)n1`, for which the EC50 was greater than 200 µM and the IC50 is greater than 200 µM.

`Cc1cc(C)nc(NS(=O)(=O)c2ccc(Nc3c4ccccc4nc4c(C(=O)NC(CO)(CO)CO)cccc34)cc2)n1`: the EC50 is greater than 200 µM and the half-maximal inhibitory concentration (IC50) came to 9.33 µM.

In the case of `N#C/C(=C\NC(=S)NC1CCCCC1)c1nc2ccccc2s1`, the EC50 is greater than 200 µM and the IC50 turned out to be 41.7 µM.

On to `C=C1C(=O)O[C@H]2C1C[C@@H](O)[C@@]1(C)OC1CC[C@@]1(C)O[C@H]21` (stereo partly drawn), for which the EC50 was greater than 200 µM and the half-inhibitory concentration (IC50) came to 4.47 µM.

On to `NC(=O)CC(N)C(=O)NC(Cc1ccccc1)C(=O)NC(Cc1ccccc1)NC(=O)C(Cc1c[nH]c2ccccc12)C(=O)O` (stereo not drawn), for which the EC50 is greater than 200 µM and the IC50 was greater than 200 µM.

Consider `CCCCCCCCCCCCC(=O)N1CCOCC1`, for which the EC50 was greater than 200 µM and the IC50 turned out to be 52.5 µM.

Turning to `CC(C)(C)C1C2N1C1(c3ccccc3)OC2(c2ccccc2)c2ccccc21` (stereo not drawn), the EC50 was greater than 10.2 µM and the IC50 was greater than 10.2 µM.
